This is an account of results in patent publication US20240299353A1, “COMPOSITIONS AND METHODS FOR TREATING […] 5-MEO-DMT” (Alvarius Pharmaceuticals Ltd., priority 2021, published 2024).

Test [1] deals with 5-HT1AR. As to the kind of experiment: Western blot of 5-HT1AR in brain regions, chronic cocaine ± 5-MeO-DMT. The test is classed as in vivo, Male Wistar rats. The text has this:
Male Wistar rats aged 7 weeks were acclimatized to the facility for 1 week prior to the beginning of the study. […] Animals were euthanized 23- or 119-hours following vehicle or 5-MeO-DMT administration.
Following euthanasia brain regions of interest were isolated. Briefly, the olfactory bulbs were removed before the brain was placed in a rat brain matrix (FIG. 2A). Sterile blades were inserted at positions 2 and 3 (FIG. 2B) to extract a coronal slice containing the Bregma+˜0.2-+˜2.2 coordinates (FIG. 2C). From this tissue slice a blunted 12 G needle was used to punch dissect the NAc and dorsal striatum (DS) (FIG. 2D-2E) identified using the rat brain atlas (Panxinos and Watson 2nd edition). The PFC, hippocampus (Hip) and amygdala (Amyg) were then blunt dissected (FIG. 3A-3D). All regions were frozen in liquid nitrogen and stored at −80° C. until processed.
These treatment groups were used for the molecular assessment of addiction-linked markers.
Determination of protein concentration—a bicinchoninic acid assay (BCA, ThermoFisher) was conducted to determine the total protein concentration in tissue lysates following manufacturer's instructions. Briefly, bovine serum albumin (BSA) standards were prepared in a serial dilution (0-2.0 mg protein/ml) and 200 μl working reagent (50:1, reagent A: reagent B) was added to each of the standards and samples in a 96 well plate (Greiner). For tissue lysates a 1:10 dilution was performed with cell lysis buffer to ensure absorbance values lay within the working range established by the standards. All samples and standards were added in duplicate. The plate was covered and incubated for 30 mins at 37° C. before absorbance was read at 562 nm on a plate reader (SpectraMax M3). The absorbance values were used to form a standard curve of known protein concentrations and protein concentration of samples were derived using the equation of the line. All samples were standardized to the lowest protein concentration using distilled H20 (dH2O).
SDS-PAGE and Western Blotting—Following equalisation of protein concentrations, 6× sample loading buffer (15% SDS, 15% […], 50% glycerol, 0.01% bromophenol blue, […]) was added to each sample using a dilution factor of 1:5 of the total volumes before boiling at 100° C. for 5 mins. Samples were stored at −20° C. until use. One dimensional sodium-dodecyl-sulphate polyacrylamide gel electrophoresis (SDS-PAGE) was used for protein separation based on molecular weight. The percentage of acrylamide in the resolving or stacking gel was determined by the molecular weight of the protein of interest. In this instance all gels consisted of a 5% stacking gel and a 10% resolving gel with the exception of mGluR5, G9a (8%) and H3K9Me2 (12%). 20 μg of protein was loaded and resolved using SDS-PAGE. Gel electrophoresis was conducted at 80V while the protein was in the stacking gel, once it migrated to the resolving gel the voltage was increased to 120V and ran for 90 mins. Samples were transferred to a 0.45 μm polyvinylidene difluoride (PVDF) membrane (Analab) for 1 hour at 100V and blocked in 5% milk blocking solution made in tris-buffered saline containing tween®-20 (TBS-T, Sigma) for 90 mins. Primary antibodies (FIG. 5) were diluted in 5% BSA in TBS-T and incubated with membranes overnight at 4° C. or for 2 hours at room temperature. After incubation with primary antibodies the membranes were washed in TBS-T for 4×10 minutes before incubation with 1:2000 anti-rabbit and 1:2000 anti-mouse Alexa Fluro® conjugated secondary antibodies (Invitrogen) in 2% milk for 1 hour at room temperature. Membranes were washed in TBS-T for 4×10 minutes and in TBS for 1×10-minute wash. Proteins were visualized using Odyssey® infrared imaging system. Protein expression was quantified using Image Studio Lite (Version 5.2) and expression intensities were normalized to a house keeping protein, α-Tubulin or β-actin.
For orientation: In western blotting, separated proteins are transferred to a membrane and probed.

In test [2] the test system is rats. In words: Pre-pulse inhibition of startle. The test is classed as in vivo. Particulars: for treatment effects on PPI: cohort 1 (20 mg/kg 5-MeO-DMT). As to the method:
In this instance the animals were 9 weeks old at the initiation of drug exposures and we selected just the high (20 mg/kg) dose of 5-MeO-DMT from the molecular study. […] Due to the number of behavioral paradigms to be completed by each animal we divided the study into two cohorts staggered by two weeks with 8 animals coming from each cohort to make up the 16 animals for each treatment group. 23 hours after 5-MeO-DMT administration the animals were introduced to the open field arena where they were allowed to freely explore the area for 5 mins. Following the open field test (OFT) animals were returned to their home cage for 2 hours before beginning either the elevated plus maze (EPM) or pre-pulse inhibition (PPI) testing. 24 hours after completing the OFT animals were returned to the chamber for the first session in novel object (NO1) testing. The animals were returned to their home cage for 2 hours before beginning the EPM or PPI test. 24 hours after NO1 the animals returned to the open field chamber for the second session in novel object (N02) testing. After completing N02 animals were returned to their home cage for 2 hours before they underwent the forced swim test (FST) pre-test. 24 hours later the animals were returned to the FS cylinders for the FST. Upon completion of the FST all animals were euthanized. A timeline of this experimental cohort is described in FIG. 8A.
The experiment was conducted as described for cohort 1 for the first 13 days of injections. There are a number of notable differences in experimental procedures between the two cohorts of animals to be highlighted. […] Finally, the dose of 5-MeO-DMT was reduced to 10 mg/kg. The order and timing of all the behavioral paradigms were kept constant between the cohorts. A timeline of this experimental cohort is described in FIG. 8B. Additionally, 5-MeO-DMT administrations were staggered so animals could be observed for the duration of acute drug effects and to ensure recovery prior to the next animal being injected. The typical symptoms of psychedelic drug administration outlined above were reproduced in all animals administered 5-MeO-DMT.
The PPI protocol employed was based on a procedure previously described by Geyer and colleagues (Geyer, M. A., K. Krebs-Thomson, D. L. Braff & N. R. Swerdlow (2001) Pharmacological studies of prepulse inhibition models of sensorimotor gating deficits in schizophrenia: a decade in review. Psychopharmnacology, 156, 117-154). Each rat was restrained in an appropriately sized cylindrical holder that was placed on a movement-sensitive platform and maintained in a soundproof chamber. The animal was allowed to habituate to a white noise background of 70 dB for 5 mins before receiving 5 20 ms startle trials of 120 dB separated by randomized intervals of 10-20 s. Immediately thereafter, each rat received 5 separate presentations with one of the pre-pulse stimuli of 72, 76, 80, or 84 dB followed 100 ms later by the 120 dB acoustic startle stimulus. Each trial was separated by a time interval of 10-20 s. The 4 pre-pulse stimuli were delivered in a randomised manner and included periods in which there was no pre-pulse or startle stimulus. The session terminated with five further startle trials. Randomisation of the sound signals delivered and quantification of the startle movements were recorded from the movement-sensitive platform. Signals were integrated using the software supplied by the manufacturers of equipment hardware (MED-Associates Inc., St. Albans, VT, USA).

The mark [3] stands for this setting: hippocampus, 120 h, all treatment groups.

Turning to `COC(=O)[C@H]1[C@@H](OC(=O)c2ccccc2)C[C@@H]2CC[C@H]1N2C.Cl` [cocaine, cocaine hydrochloride, reference compound], the 5-HT1AR expression entry in test [1] (amygdala, 24 h, cocaine, p=0.0172, no post hoc differences) is on record as “significant cocaine effect”; in test [1] (amygdala, 120 h, cocaine), “does not persist to 120 hours”; in test [1] (hippocampus, 24 h, repeated cocaine), “decreased 5-HT1AR expression”; in test [1] (setting [3]), “equal across treatment groups”. Besides, the “treatment effects on PPI” value in test [2] is listed as “no treatment effects on PPI”. Moreover, the “percentage inhibition of startle with change in intensity of the pre-pulse” value in test [2] (cohort 1, cocaine alone) is recorded as “no change in percentage inhibition of startle”.

Consider `COc1ccc2[nH]cc(CCN(C)C)c2c1` [5-MeO-DMT, 5-methoxy-N,N-dimethyltryptamine], for which the 5-HT1AR expression result in test [1] (hippocampus, 24 h, 10 mg/kg 5-MeO-DMT alone (decrease)) was “only the 10 mg/kg concentration achieves significance”; in test [1] (hippocampus, 24 h, 20 mg/kg 5-MeO-DMT alone), “trend towards decreasing expression levels”; in test [1] (hippocampus, 24 h, cocaine + either 5-MeO-DMT concentration (10 or 20 mg/kg)), “restoring receptor expression to levels comparable to control”; in test [1] (setting [3]), “equal across treatment groups”. The “treatment effects on PPI” value in test [2] was “no treatment effects on PPI”. The “inhibition of the startle response at 80 dB or 84 dB relative to the 72 dB pre-pulse” value in test [2] (cohort 1, 5-Meo-treated animals) is reported as “significant increase in the inhibition of the startle response”. Further, in test [2] (cohort 1, cocaine+20 mg/kg 5-MeO-DMT combination), the “percentage inhibition of startle with change in intensity of the pre-pulse” value is recorded as “no change in percentage inhibition of startle”. In addition, in test [2] (cohort 1, combination group relative to control and 5-MeO-DMT alone), the “PPI at the 80 dB pre-pulse” value is recorded as “significant attenuation of PPI”. Besides, the “treatment effect on PPI” value in test [2] (cohort 2 (10 mg/kg 5-MeO-DMT)) was “no treatment effect on PPI”. For the same molecule, the “PPI at 84 dB relative to 72 dB pre-pulse” value in test [2] (cohort 2, cocaine+10 mg/kg 5-MeO-DMT) is “significant increase in PPI”.
